Results published in patent US20030109537A1, “Methods and materials for treating bone conditions” (priority 2001, published 2003).

Legend:
[1] = test system: PDGF-A positive mast cells; experiment: Immunohistochemistry for PDGF-A on bone samples; assay type: in vivo, rat
[2] = test system: PTH-induced marrow fibrosis and osteoclast resorption; experiment: Bone histomorphometry in rats given trapidil, continuous PTH or both; assay type: in vivo, rat
Experimental: Treatment protocol. Three month-old female Sprague-Dawley rats were divided into 4 groups. In group 1 (n=9), osmotic pumps that delivered vehicle alone at a rate of 1 μl/hr for 7 days were implanted in each rat. […] In groups 3 and 4 (n=8 and 10, respectively), osmotic pumps were implanted in each rat that delivered 40 μg/kg/day hPTH at a rate of 1 μl/hr for 7 days. […] Tetracycline (20 mg/kg, Sigma Chemical Co., St. Louis, Mo.) and calcein (20 mg/kg, Sigma) fluorochrome labels were injected at the base of the tail on day 0 (tetracycline) and day 6 (calcein). On day 8, all rats were anesthetized and blood was collected by cardiac puncture. The blood samples were used to determine serum chemistry and PTH levels. Following blood collection, the rats were sacrificed by cervical dislocation, and tibiae were surgically removed and fixed in 70% ethanol for bone histomorphometry.
Bone histomorphometry. Proximal metaphyses were dehydrated in a graded series of ethanol, then infiltrated and embedded in methymethacrylate (Fisher Scientific, Fair Lawn, N.J.). […] Dynamic histomorphometric cancellous bone measurements were made in the unstained sections using fluorescent microscopy to detect the injected tetracycline and calcein markers. After obtaining the cancellous bone measurements, consecutive sections were stained with toluidine blue for bone cell and peritrabecular fibrosis measurements using light microscopy. A standard sampling site of 2.8 mm was located in the secondary spongiosa of the metaphysis at 1.5 mm distal to the growth plate.
All histomorphometric measurements were made with an Osteomeasure image analysis system (OsteoMetrics, Atlanta, Ga.) coupled to a photomicroscope and personal computer. All parameters were calculated according to standardized nomenclature. See, for example, Parfitt et al., J. Bone Miner. […] Bone volume was defined as the percentage of tissue volume consisting of cancellous bone. Tetracycline and calcein labels were determined as the percentage of bone perimeter labeled with fluorochrome. Mineral apposition rate (MAR) was defined as the average width between tetracycline and calcein label divided by interlabel time of 6 days. Bone formation rate (BFR) was defined as the product of MAR and the calcein label perimeter, and was expressed per bone surface (BFR/BS), bone volume (BFR/BV), or tissue volume (BFR/TV). Osteoblast surface was defined as a palisade of large basophilic cuboidal cells directly lying on top of the osteoid, and was expressed as a percent of bone perimeter. Osteoclast surface was defined as the bone perimeter lined by multinucleated cells regardless of the presence of erosion. Fibrotic perimeter was defined as the bone perimeter lined by multilayers of fibroblasts.
Statistical analysis. Multiple group comparisons were determined using one-way analysis of variance (one-way ANOVA) with statistical significance at P<0.05. Differences between pairs of groups were compared by the Fisher's protected least significant difference post-hoc test.
Serum and bone samples were collected after 7 days and analyzed.

[3] = rat proximal tibial metaphysis cancellous bone, day 8, trapidil 40 mg/kg/day s.c., hPTH 40 μg/kg/day continuous, mean ± SEM

Substance: human PTH (1-34)
- mast cell staining for PDGF-A peptide ([1]; PTH-treated rats): stained intensely
- number of PDGF-A positive mast cells ([1]; PTH-treated vs vehicle, PTH+trapidil treated): increased
- cancellous bone formation (per bone surface, bone volume, or tissue volume) ([2]; continuous PTH, rats): stimulated
- osteoclast-lined surface (Oc.S/BS) ([2]; continuous PTH, rats, FIG. 2B): increased
- peritrabecular fibrosis ([2]; continuous PTH, rats, FIG. 3): induced extensive peritrabecular fibrosis
- osteoblast surface (Ob.S/BS) ([2]; continuous PTH, trapidil given with continuous PTH, FIG. 2A): increased
- effect on cortical bone histomorphometry ([2]; fluorochrome-based analysis of tibial metaphyseal sections, rats): neither trapidil nor PTH treatment had any effect
- BFR/BS (bone formation rate per bone surface) [2, 3]: 0.71 ± 0.10^ab μm^3/μm^2/day
- BFR/BV (bone formation rate per bone volume) [2, 3]: 2.30 ± 0.31^ab %
- BFR/TV (bone formation rate per tissue volume) [2, 3]: 0.63 ± 0.09^ab %
- BV/TV (bone volume per tissue volume) [2, 3]: 27.25 ± 1.14%
- Calcein label [2, 3]: 48.08 ± 5.35^ab %
- MAR (mineral apposition rate) [2, 3]: 1.29 ± 0.08 μm/day
- Tetracycline label [2, 3]: 5.65 ± 2.48%
